According to patent US20240156965A1, “DICHALCOGENIDE PRODRUGS” (Ludwig-Maximilians-Universitat Munchen, priority 2021, published 2024):
“Also recorded” adds a separate entry of the source.

Legend:
TrxR [1] = target: T1, TrxR (Rattus norvegicus, UniProt O89049); conditions: cited from earlier work
T1 sequence (O89049 1-499): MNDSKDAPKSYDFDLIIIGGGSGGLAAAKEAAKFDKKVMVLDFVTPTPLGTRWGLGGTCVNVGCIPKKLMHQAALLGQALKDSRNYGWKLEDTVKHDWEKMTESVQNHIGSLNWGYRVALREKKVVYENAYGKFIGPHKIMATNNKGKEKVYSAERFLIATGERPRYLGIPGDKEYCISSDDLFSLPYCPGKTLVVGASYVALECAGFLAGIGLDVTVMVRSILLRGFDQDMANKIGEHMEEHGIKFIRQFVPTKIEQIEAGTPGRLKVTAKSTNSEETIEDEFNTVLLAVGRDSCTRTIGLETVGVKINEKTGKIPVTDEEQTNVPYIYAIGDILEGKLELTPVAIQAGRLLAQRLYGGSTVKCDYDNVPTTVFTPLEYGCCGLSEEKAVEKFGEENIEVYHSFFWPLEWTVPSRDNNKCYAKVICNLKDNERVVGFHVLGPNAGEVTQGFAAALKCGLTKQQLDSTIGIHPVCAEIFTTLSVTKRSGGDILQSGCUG

TrxR [2] = conditions: cell-free; cited from earlier work
TrxR1 = target: T2, TrxR1 (Homo sapiens, UniProt Q16881); test: Cellular quantitative HTS for TrxR1 inhibitors using P6 (LOPAC1280); assay type: cell-based; conditions: for activity / hit status in cellular P6 screen: hits classed up to 20 μM; for pIC50 comparison between BAY 11-7085 and BAY 11-7082: despite ca. 1.1 Log P difference
T2 construct: endogenous in cells
T2 sequence (Q16881 151-649 limits assumed): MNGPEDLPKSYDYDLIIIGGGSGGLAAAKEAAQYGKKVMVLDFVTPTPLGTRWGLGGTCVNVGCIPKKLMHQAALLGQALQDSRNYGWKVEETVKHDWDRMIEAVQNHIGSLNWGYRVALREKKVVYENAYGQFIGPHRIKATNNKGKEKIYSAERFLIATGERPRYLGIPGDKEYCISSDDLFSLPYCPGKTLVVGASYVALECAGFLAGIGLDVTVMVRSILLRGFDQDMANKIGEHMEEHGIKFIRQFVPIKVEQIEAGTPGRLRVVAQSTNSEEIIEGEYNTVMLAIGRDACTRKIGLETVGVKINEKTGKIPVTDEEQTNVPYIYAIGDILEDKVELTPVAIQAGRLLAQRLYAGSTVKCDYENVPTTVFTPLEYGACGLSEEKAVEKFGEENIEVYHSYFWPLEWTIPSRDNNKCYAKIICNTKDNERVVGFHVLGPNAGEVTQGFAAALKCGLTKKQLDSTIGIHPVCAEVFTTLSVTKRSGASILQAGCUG
Description: The stability and constant environment of P6's signal (crystallising fluorophore, protected from interferences), its low background (ESIPT quenched probe) and low crosstalk (high Stokes shift), and its ability to directly generate a readout, were promising features. We therefore set out to develop the first cellular quantitative HTS (qHTS) assay for TrxR1 inhibitors, using P6, and performing pilot screening with the 1280-compound LOPAC1280 library. LOPAC is intended to cover drugs and drug-like scaffolds with much comparative data on target selectivity, potency, cellular and in vivo bioactivity, without focus on any particular mechanism of action. The LOPAC library was used in the only previously reported qHTS enzymatic TrxR assay (in 2011), and there is 82% overlap in composition between the 2011 and 2021 version (Prast-Nielsen, S. et al., Free Radical Biology and Medicine 50, 1114-1123 (2011)).
Cellular screening using P6, optimized for HTS with 1536-well plates (assay volume 6 μL, 500 cells/well) over 4 h run-time, reproduced the strong performance seen in 96-well format. Untreated vs no-cell controls gave a 7-fold raw signal to background ratio [S:B] without background compensation, with a high Z′ value of 0.64, suitable for HTS (FIG. 5a). P6 signal was linear over the assay time, and linearly reflected turnover rate (varied P6 concentration or cell count; FIG. 5b). Pre-incubating cells for 1 h with reference inhibitors prior to P6 gave concentration-dependent inhibition consistent with reported values (FIG. 5c).
A LOPAC1280 screen using this assay protocol performed well (Z′=0.63, S:B 7:1). Compounds with apparent toxicity within the assay time were excluded by a separate viability counter-assay. Moderate cut-off criteria (IC50<20 μM and curve form) gave a <1.5% hit rate (18 of 1278 compounds, plus TRi-1 and TRi-2; FIG. 5d). […] Matching expectations, with the exception of auranofin, none of these species approached the potency of TRi-1 (Stafford, W. C. et al., Sci. Transl. Med. 10, eaaf7444 (2018)).

[3] = Challenge with monothiol reductant GSH, cell-free fluorogenic cargo release; assay type: physicochemical; conditions: 10 μM probe; for sensitivity to GSH in GSH titration, signal F/F^TCEP: 3 h timepoint, GSH up to 10 mM; for resistance to GSH-triggered release of fluorescent cargo PQ-OH (timecourse): supraphysiological GSH 10 mM, TE buffer pH 7.4, 37 °C; for cargo release when challenged with GSH / GSH system reductants: relevant cellular levels
Description: (§1) This cell-free assay examined the stability of dichalcogenide-based reduction-triggered compounds of the invention when exposed to cellular monothiol reductant GSH, and its cellular partner reductants glutathione reductase (GR) and glutaredoxins (Grx1 and Grx2).
(§2) Assay Conditions: A black 96-well plate with black bottom was charged with solutions of fluorophore-releasing reduction-triggered probes that are compounds of the invention (P1, P2, P3, P6 and P7) or that are not compounds of the invention and reveal the performance of prior art systems (disulfide X26), reaching 100 μL final volume, 1% final DMSO, 10 μM probe, aq. TE buffer (pH 7.4), with the indicated concentrations of reductant (in FIG. 1a) or concentration ratios of reductant to probe (in FIG. 1b-d). TCEP (100 μM) was used as a quantitative reference reductant; and in the GR/GSH/Grx assays (FIG. 1c-d), GR was used at 20 nM, GSH at 100 μM, to maintain Grx in a reduced state suitable for challenging the probes without supplying a high concentration of either GSH or GR. Reaction mixtures were incubated at 37° C. for up to 6 h while measuring fluorescence intensity F over time, using a BMG Labtech FLUOstar Omega platereader (λexc=355 nm, λem=530 nm).
(§3) Data Representation: F^TCEP is the maximum possible fluorescence increase, corresponding to complete reduction-triggered cargo release by the TCEP incubation. F/F^TCEP thus gives the fluorescence intensity, as a fraction of the maximum possible fluorescence signal, at the indicated times.

[4] = test system: glutaredoxins (Grx1 and Grx2) with GR and GSH; test: Challenge with GR/GSH/Grx system reductants, cell-free; assay type: biochemical; conditions: 10 μM probe, GR 20 nM, GSH 100 μM, Grx1 or Grx2 up to physiological concentrations
Description: as §1, §2, §3

[5] = test system: HeLa cervical cancer cell line; test: Cellular reduction assay in HeLa cells (fluorescence timecourse); assay type: cell-based, human; conditions: time- and dose-dependence
Experimental: Assay Conditions: Cells were cultured under standard conditions (Gao, L. et al. Cell Chemical Biology 2021, 28, 1-14. https://doi.org/10.1016/j.chembiol.2020.11.007), left to adhere for 24 h, then compounds were added to 100 μM with 1% vol DMSO. Fluorescence timecourse measurements were acquired as in the chemoreductant assay, with all conditions in triplicates.
Data Representation: F.I.(t) is the fluorescence intensity signal increase as compared to time zero signal (fluorescence intensity immediately following compound addition, before probe activation could occur), in arbitrary units although with the same detection settings for all probes releasing the same cargo. This corresponds to reduction-triggered cargo release.

[6] = target: T3, human recombinant thioredoxin reductase 1 (TrxR1) (Homo sapiens, UniProt Q16881); test: Enzymatic activation assay with TrxR1, cell-free; assay type: biochemical; conditions: 10 μM probe, 20 nM TrxR1, 100 μM NADPH, 37 °C
T3 sequence (Q16881 1-499 isoform Q16881-5): T2 sequence (Q16881 151-649 limits assumed)
Experimental: This cell-free assay (see FIG. 2) examined the processing of dichalcogenide-based fluorophore-releasing reduction-triggered probes that are compounds of the invention, by components of the cellular thioredoxin system.
Assay conditions and data representation: A black 96-well plate with black bottom was charged with solutions of probes (P1, P2, P3, P6, P7) to reach final reaction conditions: 100 μL of aq. TE buffer (pH 7.4), 10 μM probe concentration, 1 vol % DMSO, and 20 nM of human recombinant thioredoxin reductase 1 (TrxR1; in FIG. 1a), or 20 nM of either TrxR1 or thioredoxin reductase Sec498Cys mutant (TrxR1 U498C or “mut”; in FIG. 1b), or the indicated probe-to-reductant concentration ratios of TrxR1 (in FIG. 1c) or human recombinant thioredoxin 1 (Trx1; in FIG. 1d); with the final step being the addition of NADPH (100 μM final). The reaction mixtures were incubated at 37° C. for 3 to 6 h as shown with timecourse measurements of fluorescence as for FIG. 1. Data representation as for FIG. 1.

In the case of `COC[C@H]1OC(=O)c2coc3c2[C@@]1(C)C1=C(C3=O)[C@@H]2CCC(=O)[C@@]2(C)C[C@H]1OC(C)=O` [wortmannin], the “activity in enzymatic (cell-free) TrxR screen” value (TrxR [1]) is given as “activity in the enzymatic screen”.

In the case of `OC1C[Se][Se]CC1O` (stereo not drawn) [E3], the “reduction by TrxR in vitro” value (TrxR [2]) is given as “processed by TrxR”.

For `NC1(C(=O)O)CCc2cc(C(=O)O)ccc21` (stereo not drawn) [AIDA], the “activity / hit status in cellular P6 screen” value (shortened to “activity / hit status”) (TrxR1) was “non-obvious hit”.

With `CN(C(=O)Oc1ccc(Cl)cc1-c1nc2ccc(Cl)cc2c(=O)[nH]1)C1CC[Se]SC1` (stereo not drawn) [P2] the “sensitivity to GSH in GSH titration, signal F/F^TCEP” value (shortened to “sensitivity to GSH in GSH titration”) [3] was “very low sensitivity”, the “resistance to GSH-triggered release of fluorescent cargo PQ-OH (timecourse)” value (shortened to “resistance to GSH-triggered release”) [3] was “majorly” and the “cargo release when challenged with GSH / GSH system reductants” value [3] was “high resistance to GSH challenge”. For the same compound, the “triggering by GR/GSH/Grx systems” value [4] was “total resistance to Grx challenge”.

In the case of `Oc1ccc2ccccc2c1SSc1c(O)ccc2ccccc12` [IPA-3], the “activity / hit status” value (TrxR1) is given as “active in the cellular screen” and the “activity in enzymatic (cell-free) TrxR screen” value (TrxR [1]) is given as “inactivity in the enzymatic assay”.

With `CN1CCN(C(=O)CCN(C(=O)Oc2ccc(Cl)cc2-c2nc3ccc(Cl)cc3c(=O)[nH]2)C2CCCCC2)CC1` [X28, reference compound] the “fluorescence signal generation F.I.(t) in HeLa cells” value [5] was “does not generate signal; also recorded: did not generate signal”.

For `CN(N=O)c1cc(O)ccc1O` [Dephostatin], the “ratio of cell-free to cellular potency (potency loss in cells)” value (TrxR1; shared hits of cellular and cell-free qHTS) was greater than 10 fold.

In the case of `CN(C(=O)Oc1ccc(Cl)cc1-c1nc2ccc(Cl)cc2c(=O)[nH]1)C1CC[Se][Se]C1` (stereo not drawn) [P3], the “sensitivity to GSH in GSH titration” value [3] is reported as “completely insensitive”, the “resistance to GSH-triggered release” value [3] is reported as “entirely” and the “cargo release when challenged with GSH / GSH system reductants” value [3] is reported as “totally resisted releasing cargo”. The “cargo release on exposure to TrxR1 (timecourse)” value [6] was “stable to this challenge; also recorded: nonresponsive to TrxR”.

For `Cc1ccc(S(=O)(=O)/C=C/C#N)cc1` [BAY 11-7082], the “pIC50 comparison between BAY 11-7085 and BAY 11-7082” value (TrxR1) was “no change”.

For `CC(C)(C)c1ccc(S(=O)(=O)/C=C/C#N)cc1` [BAY 11-7085], the “pIC50 comparison between BAY 11-7085 and BAY 11-7082” value (TrxR1) was “no change”.

In the case of `NC1CC[Se][Se]C1` (stereo not drawn) [E4], the “reduction by TrxR in vitro” value (TrxR [2]) is listed as “resistant to TrxR”.

With `CN(C(=O)Oc1ccc(Cl)cc1-c1nc2ccc(Cl)cc2c(=O)[nH]1)C1CCS[Se]C1` (stereo not drawn) [P1] the “sensitivity to GSH in GSH titration” value [3] was “completely insensitive”, the “resistance to GSH-triggered release” value [3] was “entirely” and the “cargo release when challenged with GSH / GSH system reductants” value [3] was “totally resisted releasing cargo”.

For `C=CCN1CCc2c(cc(O)c(O)c2Cl)C(c2ccccc2)C1` (stereo not drawn) [chloro-APB], the “activity / hit status” value (TrxR1) is listed as “active in the cellular screen” and the “activity in enzymatic (cell-free) TrxR screen” value (TrxR [1]) is listed as “inactivity in the enzymatic assay”.

For `OC[C@H]1O[C@H]([S-])[C@H](O)[C@@H](O)[C@@H]1O.[Au+]` [aurothioglucose], the “pIC50/potency lower than auranofin” value (TrxR1; relative to ester prodrug auranofin) was 10 fold.
